# Measured values: patent US10633375B2, “Oxopicolinamide derivative, preparation method therefor and pharmaceutical use thereof” (Jiangsu Hengrui Medicine Co., Ltd., priority 2016, dated 2020)
# Target: Coagulation Factor XIa protease (Homo sapiens (Human), UniProt P03951)
# Assay: Inhibition of Factor XIa detected by absorption photometry
# Format: biochemical
# Details: absorbance at 405 nm, 10 minutes at 37° C.
# Procedure: Test Example 1: Biological Activity of the Compounds of the Present Invention on
# The Inhibition of Factor XIa Detected by Absorption Photometry
# 1. Experimental Materials
# Enzyme: Coagulation Factor XIa protease (Abcam, Art. No ab62411)
# Substrate: Coagulation Factor XIa specific substrate (HYPHEN1310 med, Art. No. Biophen cs-21(66))
# 2. Experimental Procedure
# 20 mM of test compound dissolved in 100% DMSO was diluted to 200, 20, 2, 0.2, 0.02, 0.002 μM with 100% DMSO; 1 μl of the compound was added to each well in a 384-well plate, blank and control wells were replaced with DMSO. The plate was centrifuged to remove the compound to the bottom. 10 μl (2.5 μg/ml) of FXIa enzyme solution was added to each well, and 10 μl of buffer was added to the blank well. The plate was centrifuged to remove the enzyme solution to the bottom.
# Finally, 10 μl of 2 mM substrate were added to each well, and the plate was centrifuged to remove the substrate solution to the bottom.
# The plate was incubated for 10 minutes at 37° C.; and then the absorbance was measured at 405 nm.
# Chain of Coagulation Factor XIa protease (P03951 388-625): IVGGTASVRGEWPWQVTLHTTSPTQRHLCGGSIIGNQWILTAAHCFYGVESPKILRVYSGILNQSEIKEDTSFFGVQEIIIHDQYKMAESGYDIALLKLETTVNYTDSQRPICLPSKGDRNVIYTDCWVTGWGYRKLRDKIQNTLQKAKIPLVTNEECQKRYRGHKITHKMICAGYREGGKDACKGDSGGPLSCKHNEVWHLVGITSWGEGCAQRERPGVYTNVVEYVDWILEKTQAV
# Chain of Coagulation Factor XIa protease (P03951 19-387 partner): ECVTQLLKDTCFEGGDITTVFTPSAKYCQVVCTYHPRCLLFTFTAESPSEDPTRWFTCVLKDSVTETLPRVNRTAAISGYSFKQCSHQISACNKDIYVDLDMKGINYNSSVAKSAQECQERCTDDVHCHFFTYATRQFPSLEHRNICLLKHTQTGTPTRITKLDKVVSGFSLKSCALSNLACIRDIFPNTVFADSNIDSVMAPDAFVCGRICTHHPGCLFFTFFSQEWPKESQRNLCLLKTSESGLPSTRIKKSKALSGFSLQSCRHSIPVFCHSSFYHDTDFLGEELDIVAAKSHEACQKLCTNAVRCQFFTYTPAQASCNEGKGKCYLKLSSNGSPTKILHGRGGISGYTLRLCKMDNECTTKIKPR
row,SMILES,IC50 [nM]
1,"COc1cn(C(Cc2ccccc2)C(=O)Nc2ccc3nccnc3c2)c(=O)cc1-c1cc(Cl)ccc1C(C)=O (centres unmarked) [Example 45, 2-(4-(2-acetyl-5-chlorophenyl)-5-methoxy-2-oxopyridin-1(2H)-yl)-3-phenyl-N-(quinoxalin-6-yl)propanamide]",69
2,"CCC(=O)c1ccc(Cl)cc1-c1cc(=O)n([C@H](Cc2ccccc2)C(=O)Nc2ccc(C(N)=O)cc2)cc1OC [Example 25, (R)-4-(2-(4-(5-chloro-2-propionylphenyl)-5-methoxy-2-oxopyridin-1(2H)-yl)-3-phenylpropanamido)benzamide]",1520
3,"COCCC(C(=O)Nc1ccc(C(=O)O)cc1)n1cc(OC)c(-c2cc(Cl)ccc2C(C)=O)cc1=O (centres unmarked) [Example 147, 4-(2-(4-(2-acetyl-5-chlorophenyl)-5-methoxy-2-oxopyridin-1(2H)-yl)-4-methoxybutanamido)benzoic acid]",56
4,"COc1cn(C(Cc2ccccc2)C(=O)Nc2ccc3ncncc3c2)c(=O)cc1-c1cc(Cl)ccc1C(C)=O (centres unmarked) [Example 40, 2-(4-(2-acetyl-5-chlorophenyl)-5-methoxy-2-oxopyridin-1(2H)-yl)-3-phenyl-N-(quinazolin-6-yl)propanamide]",38
5,"COc1cn(C(CC2CCC2)C(=O)Nc2ccc(C(=O)O)cc2)c(=O)cc1-c1c(C(C)=O)ccc(Cl)c1F (centres unmarked) [Example 159, 4-(2-(4-(6-acetyl-3-chloro-2-fluorophenyl)-5-methoxy-2-oxopyridin-1(2H)-yl)-3-cyclobutylpropanamido)benzoic acid]",33
6,"COc1cn(C(Cc2ccccc2Br)C(=O)Nc2ccc(C(=O)O)cc2)c(=O)cc1-c1cc(Cl)ccc1C(C)=O (centres unmarked) [Example 64, 4-(2-(4-(2-acetyl-5-chlorophenyl)-5-methoxy-2-oxopyridin-1 (2H)-yl)-3-(2-bromophenyl)propanamido)benzoic acid]",58
7,COc1cn(C(CC2CCCCO2)C(=O)Nc2ccc(C(=O)O)cc2)c(=O)cc1-c1cc(Cl)ccc1C(C)=O (centres unmarked) [Example 176],71
8,"COc1cn(C(Cc2cccnc2)C(=O)Nc2ccc(C(=O)O)cc2)c(=O)cc1-c1cc(Cl)ccc1C(C)=O (centres unmarked) [Example 82, 4-(2-(4-(2-acetyl-5-chlorophenyl)-5-methoxy-2-oxopyridin-1(2H)-yl)-3-(pyridin-3-yl)propanamido)benzoic acid]",68
9,"COc1cn([C@@H](Cc2ccccc2)C(=O)Nc2ccc(C(=O)NC3CC3)cc2)c(=O)cc1-c1cc(Cl)ccc1C(C)=O [Example 43, (S)-4-(2-(4-(2-acetyl-5-chlorophenyl)-5-methoxy-2-oxopyridin-1 (2H)-yl)-3-phenylpropanamido)-N-cyclopropylbenzamide]",47
10,"COc1cn(C(Cc2ccccc2)C(=O)Nc2ccc3nn(C)cc3c2)c(=O)cc1-c1cc(Cl)ccc1C(C)=O (centres unmarked) [Example 18, 2-(4-(2-acetyl-5-chlorophenyl)-5-methoxy-2-oxopyridin-1(2H)-yl)-N-(2-methyl-2H-indazol-5-yl)-3-phenylpropanamide]",56
11,"COc1cn(C(CCOC(C)(C)C)C(=O)Nc2ccc(C(=O)O)cc2)c(=O)cc1-c1c(C(C)=O)ccc(Cl)c1F (centres unmarked) [Example 120, 44-(2-(4-(6-acetyl-3-chloro-2-fluorophenyl)-5-methoxy-2-oxopyridin-1(2H)-yl)-4-(tert-butoxy)butanamido)benzoic acid]",49
12,"COc1cn(C(CC2(C)CC2)C(=O)Nc2ccc(C(=O)O)cc2)c(=O)cc1-c1cc(Cl)ccc1C(C)=O (centres unmarked) [Example 158, 4-(2-(4-(2-acetyl-5-chlorophenyl)-5-methoxy-2-oxopyridin-1(2H)-yl)-3-(1-methylcyclopropyl)propanamido)benzoic acid]",46
13,"CCC(=O)c1ccc(Cl)cc1-c1cc(=O)n(C(CCOC(C)(C)C)C(=O)Nc2ccc3[nH]c(C(=O)O)cc3c2)cc1OC (centres unmarked) [Example 119, 5-(4-(tert-butoxy)-2-(4-(5-chloro-2-propionylphenyl)-5-methoxy-2-oxopyridin-1(2H)-yl)butanamido)-1H-indole-2-carboxylic acid]",45
14,CCC(=O)c1ccc(Cl)cc1-c1cc(=O)n(C(CCOC(C)(C)C)C(=O)Nc2ccc3nn(C)cc3c2)cc1OC (centres unmarked) [Example 141],66
15,"COc1cn(C(Cc2ccccc2F)C(=O)Nc2ccc(C(=O)O)cc2)c(=O)cc1-c1cc(Cl)ccc1C(C)=O (centres unmarked) [Example 68, 4-(2-(4-(2-acetyl-5-chlorophenyl)-5-methoxy-2-oxopyridin-1(2H)-yl)-3-(2-fluorophenyl)propanamido)benzoic acid]",47
16,"COc1cn([C@H](Cc2ccn(C3CC3)n2)C(=O)Nc2ccc(C(=O)O)cc2)c(=O)cc1-c1cc(Cl)ccc1C(C)=O [Example 95, (R)-4-(2-(4-(2-acetyl-5-chlorophenyl)-5-methoxy-2-oxopyridin-(2H)-yl)-3-(1-cyclopropyl-1H-pyrazol-3-yl)propanamido)benzoic acid]",7510
17,"CCC(=O)c1ccc(Cl)cc1-c1cc(=O)n(C(CCOC(C)(C)C)C(=O)Nc2ccc3nc(C)c(C)nc3c2)cc1OC (centres unmarked) [Example 124, 4-(tert-butoxy)-2-(4-(5-chloro-2-propionylphenyl)-5-methoxy-2-oxopyridin-(2H)-yl)-N-(2,3-dimethylquinoxalin-6-yl)butanamide]",100
18,"COc1cn([C@H](Cc2ccn(C)n2)C(=O)Nc2ccc(C(=O)O)cc2)c(=O)cc1-c1cc(Cl)ccc1C(C)=O [Example 102, (R)-4-(2-(4-(2-acetyl-5-chlorophenyl)-5-methoxy-2-oxopyridin-1(2H)-yl)-3-(1-methyl-1H-pyrazol-3-yl)propanamido)benzoic acid]",8210
19,"COc1cn(C(CCOC(C)(C)C)C(=O)Nc2ccc(C(=O)O)cc2)c(=O)cc1-c1cc(Cl)ccc1C(C)=O (centres unmarked) [Example 110, 4-(2-(4-(2-acetyl-5-chlorophenyl)-5-methoxy-2-oxopyridin-1(2H)-yl)-4-(tert-butoxy)butanamido)benzoic acid]",53
20,"COc1cn(C(Cc2ccc(NC(C)=O)cc2)C(=O)Nc2ccc(C(=O)O)cc2)c(=O)cc1-c1cc(Cl)ccc1C(C)=O (centres unmarked) [Example 75, 4-(3-(4-acetamidophenyl)-2-(4-(2-acetyl-5-chlorophenyl)-5-methoxy-2-oxopyridin-1(2H)-yl)propanamido)benzoic acid]",100
21,"COC(=O)Nc1ccc(NC(=O)[C@H](Cc2ccccc2)n2cc(OC)c(-c3cc(Cl)ccc3C(C)=O)cc2=O)cc1 [Example 12, methyl (S)-(4-(2-(4-(2-acetyl-5-chlorophenyl)-5-methoxy-2-oxopyridin-1(2H)-yl)-3-phenylpropanamido)phenyl)carbamate]",42
22,"COc1cn(C(Cc2ccccc2)C(=O)Nc2ccc(C(=O)O)cc2)c(=O)cc1-c1cc(Cl)ccc1C(=O)C1CC1 (centres unmarked) [Example 41, 4-(2-(4-(5-chloro-2-(cyclopropanecarbonyl)phenyl)-5-methoxy-2-oxopyridin-1(2H)-yl)-3-phenylpropanamido)benzoic acid]",39
23,"COc1cn(C(Cc2ccccc2)C(=O)Nc2ccc3cn[nH]c3c2)c(=O)cc1-c1cc(Cl)ccc1C(C)=O (centres unmarked) [Example 42, 2-(4-(2-acetyl-5-chlorophenyl)-5-methoxy-2-oxopyridin-1 (2H)-yl)-N-(1H-indazol-6-yl)-3-phenylpropanamide]",40
